{
  "source": "patent US8962671B2",
  "about": "“Amino-substituted 3-heteroaroylamino-propionic acid derivatives and their use as pharmaceuticals” (Sanofi, priority 2011, dated 2015)",
  "data": [
    {"test_system": "platelet aggregation", "assay": "not given", "conditions": "hypertensive animals; H. Ostrowska et al., J. Cardiovasc. Pharmacol. 45 (2005); cited from earlier work", "values": [
      {"smiles": "CC[C@@H](C)[C@@H](O)[C@H](C)C(=O)[C@H](C)/C=C(\\C)C[C@H](C)[C@@H]1OC(=O)[C@H]1CC", "note": "[ebelactone B]", "platelet aggregation": "suppresses platelet aggregation"}
    ]},
    {"molecular_target": "T1, Recombinant human cathepsin A (Homo sapiens, UniProt P10619)", "T1 construct": "Recombinant human cathepsin A (residues 29-480, with a C-terminal 10-His tag); 10-His (C); purchased R&D Systems 1049-SE", "T1 sequence (P10619 29-326 limits assumed)": "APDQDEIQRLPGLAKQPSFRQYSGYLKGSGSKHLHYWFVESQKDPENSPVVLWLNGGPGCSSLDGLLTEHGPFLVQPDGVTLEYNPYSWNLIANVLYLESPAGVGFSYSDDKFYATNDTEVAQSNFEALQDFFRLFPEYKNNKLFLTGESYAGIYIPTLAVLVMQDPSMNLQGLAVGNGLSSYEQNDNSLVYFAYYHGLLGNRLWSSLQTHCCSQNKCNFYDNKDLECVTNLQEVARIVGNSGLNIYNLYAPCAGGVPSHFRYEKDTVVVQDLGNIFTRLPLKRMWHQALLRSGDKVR", "T1 sequence (P10619 327-480 limits assumed)": "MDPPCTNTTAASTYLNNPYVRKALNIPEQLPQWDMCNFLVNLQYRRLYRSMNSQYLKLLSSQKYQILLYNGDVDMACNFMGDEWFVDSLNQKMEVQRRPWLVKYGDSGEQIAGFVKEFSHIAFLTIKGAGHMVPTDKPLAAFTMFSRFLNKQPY", "assay": "Cathepsin A inhibitory activity", "format": "biochemical", "conditions": "activated recombinant human cathepsin A 833 ng/ml, Bodipy FL-labeled bradykinin 2 μM, pH 5.5, 15 min room temperature", "description": "a) Cathepsin a Inhibitory Activity\nRecombinant human cathepsin A (residues 29-480, with a C-terminal 10-His tag; R&D Systems, #1049-SE) was proteolytically activated with recombinant human cathepsin L (R&D Systems, #952-CY). Briefly, cathepsin A was incubated at 10 μg/ml with cathepsin L at 1 μg/ml in activation buffer (25 mM 2-(morpholin-4-yl)-ethanesulfonic acid (MES), pH 6.0, containing 5 mM dithiothreitol (DTT)) for 15 min at 37° C. Cathepsin L activity was then stopped by the addition of the cysteine protease inhibitor E-64 (N-(trans-epoxysuccinyl)-L-leucine-4-guanidinobutylamide; Sigma-Aldrich, #E3132; dissolved in activation buffer/DMSO) to a final concentration of 10 μM.\nThe activated cathepsin A was diluted in assay buffer (25 mM MES, pH 5.5, containing 5 mM DTT) and mixed with the test compound (dissolved in assay buffer containing (v/v) 3% DMSO) or, in the control experiments, with the vehicle in a multiple assay plate. After incubation for 15 min at room temperature, as substrate then bradykinin carrying an N-Terminal®Bodipy FL (4,4-difluoro-5,7-dimethyl-4-bora-3a,4a-diaza-s-indacene-3-propionyl) label (JPT Peptide Technologies GmbH; dissolved in assay buffer) was added to the mixture. The final concentration of cathepsin A was 833 ng/ml and the final concentration of labeled bradykinin 2 μM. After incubation for 15 min at room temperature the reaction was stopped by the addition of stop buffer (130 mM 2-(4-(2-hydroxy-ethyl)-piperazin-1-yl)-ethanesulfonic acid, pH 7.4, containing (v/v) 0.013%®Triton X-100, 0.13% Coating Reagent 3 (Caliper Life Sciences), 6.5% DMSO and 20 μM ebelactone B (Sigma, #E0886)).\nUncleaved substrate and product were then separated by a microfluidic capillary electrophoresis on a LabChip® 3000 Drug Discovery System (12-Sipper-Chip; Caliper Life Sciences) and quantified by determination of the respective peak areas. Substrate turnover was calculated by dividing product peak area by the sum of substrate and product peak areas, and the enzyme activity and the inhibitory effect of the test compound thus quantified. From the percentage of inhibition of cathepsin A activity observed with the test compound at several concentrations, the inhibitory concentration IC50, i.e. the concentration which effects 50% inhibition of enzyme activity was, calculated.", "units": {"IC50": "nM"}, "values": [
      {"smiles": "Cc1ccccc1[C@H](CC(=O)O)NC(=O)c1cc(NC(=O)CO[C@@H]2C[C@H](C)CC[C@H]2C(C)C)n(-c2ccccc2)n1", "note": "[Example 68, (S)-3-({5-[2-((1R,2S,5R)-2-Isopropyl-5-methyl-cyclohexyloxy)-acetylamino]-1-phenyl-1H-pyrazole-3-carbonyl}-amino)-3-o-tolyl-propionic acid]", "IC50": 1780},
      {"smiles": "Cc1ccccc1[C@H](CC(=O)O)NC(=O)c1cc(NC(=O)C(c2ccccc2)c2ccccc2)n(-c2ccccc2)n1", "note": "[Example 69, (S)-3-[(5-Diphenylacetylamino-1-phenyl-1H-pyrazole-3-carbonyl)-amino]-3-o-tolyl-propionic acid]", "IC50": 125},
      {"smiles": "CN(C(=O)c1ccccc1)c1cc(C(=O)N[C@@H](CC(=O)O)c2ccccc2Cl)nn1-c1ccccc1", "note": "[Example 70, (S)-3-{[5-(Benzoyl-methyl-amino)-1-phenyl-1H-pyrazole-3-carbonyl]-amino}-3-(2-chloro-phenyl)-propionic acid]", "IC50": 5.7},
      {"smiles": "CN(C(=O)c1ccccc1)c1cc(C(=O)N[C@@H](CC(=O)O)c2cccc(Cl)c2)nn1-c1ccccc1", "note": "[Example 71, (S)-3-{[5-(Benzoyl-methyl-amino)-1-phenyl-1H-pyrazole-3-carbonyl]-amino}-3-(3-chloro-phenyl)-propionic acid]", "IC50": 56.7},
      {"smiles": "Cc1ccc([C@H](CC(=O)O)NC(=O)c2cc(N(C)C(=O)c3ccccc3)n(-c3ccccc3)n2)cc1", "note": "[Example 72, (S)-3-{[5-(Benzoyl-methyl-amino)-1-phenyl-1H-pyrazole-3-carbonyl]-amino}-3-p-tolyl-propionic acid]", "IC50": 102},
      {"smiles": "O=C(O)CC(NC(=O)c1cc(NC(=O)c2ccccc2)n(-c2ccccc2)n1)C1CCCCC1", "note": "(stereo not shown) [Example 74, 3-[(5-Benzoylamino-1-phenyl-1H-pyrazole-3-carbonyl)-amino]-3-cyclohexyl-propionic acid]", "IC50": 78.6},
      {"smiles": "O=C(O)CC(Cc1ccccc1)NC(=O)c1cc(NC(=O)c2ccccc2)n(-c2ccccc2)n1", "note": "(stereo not shown) [Example 75, 3-[(5-Benzoylamino-1-phenyl-1H-pyrazole-3-carbonyl)-amino]-4-phenyl-butyric acid]", "IC50": 370},
      {"smiles": "CC(C)C[C@@H](CC(=O)O)NC(=O)c1cc(NC(=O)c2ccccc2)n(-c2ccccc2)n1", "note": "[Example 76, (S)-3-[(5-Benzoylamino-1-phenyl-1H-pyrazole-3-carbonyl)-amino]-5-methyl-hexanoic acid]", "IC50": 22000},
      {"smiles": "O=C(O)CC1(NC(=O)c2cc(NC(=O)c3ccccc3)n(-c3ccccc3)n2)CCCC1", "note": "[Example 77, {1-[(5-Benzoylamino-1-phenyl-1H-pyrazole-3-carbonyl)-amino]-cyclopentyl}-acetic acid]", "IC50": 73.4},
      {"smiles": "O=C(O)C[C@H](NC(=O)c1cc(NC(=O)c2ccccc2)n(-c2ccccc2)n1)c1ccc(F)cc1", "note": "[Example 78, (S)-3-[(5-Benzoylamino-1-phenyl-1H-pyrazole-3-carbonyl)-amino]-3-(4-fluoro-phenyl)-propionic acid]", "IC50": 34.1},
      {"smiles": "Cc1ccc([C@H](CC(=O)O)NC(=O)c2cc(NC(=O)c3ccccc3)n(-c3ccccc3)n2)c(C)c1", "note": "[Example 79, (S)-3-[(5-Benzoylamino-1-phenyl-1H-pyrazole-3-carbonyl)-amino]-3-(2,4-dimethyl-phenyl)-propionic acid]", "IC50": 108},
      {"smiles": "O=C(Nc1cc(C(=O)NCC(C(=O)O)c2ccccc2)nn1-c1ccccc1)c1ccccc1", "note": "(stereo not shown) [Example 82, 3-[(5-Benzoylamino-1-phenyl-1H-pyrazole-3-carbonyl)-amino]-2-phenyl-propionic acid]", "IC50": 4870},
      {"smiles": "O=C(O)C[C@H](NC(=O)c1cc(NC(=O)c2ccccc2)n(-c2ccccc2)n1)c1ccccc1F", "note": "[Example 83, (S)-3-[(5-Benzoylamino-1-phenyl-1H-pyrazole-3-carbonyl)-amino]-3-(2-fluoro-phenyl)-propionic acid]", "IC50": 147},
      {"smiles": "O=C(O)C[C@H](NC(=O)c1cc(NC(=O)c2ccccc2)n(-c2ccccc2)n1)c1ccccc1C(F)(F)F", "note": "[Example 84, (S)-3-[(5-Benzoylamino-1-phenyl-1H-pyrazole-3-carbonyl)-amino]-3-(2-trifluoromethyl-phenyl)-propionic acid]", "IC50": 386},
      {"smiles": "CCNc1cc(C(=O)N[C@@H](CC(=O)O)c2ccccc2C)nn1-c1ccccc1", "note": "[Example 85, (S)-3-[(5-Ethylamino-1-phenyl-1H-pyrazole-3-carbonyl)-amino]-3-o-tolyl-propionic acid]", "IC50": 80.2}
    ]}
  ]
}
